Read-outs that look alike come from different tables or passages of the source.
Tests used:
HRV-2 [1] = experiment: Cytopathic effect inhibition assay (MTT), HRV-2 in HeLa cells; assay type: cell-based, human rhinovirus; settings: read-out: IC50 (95% CL) HRV-2
Description: (§1) Monolayers of HeLa and MRC5 cells were seeded onto a 96-well culture plate as stated previously. Subsequently, 90 μL media containing several different concentrations (1–1000 μg/mL) of each test material in DMSO was put into the wells, and then 10 μL of 10×TCID50 of the virus stock was added to produce an appropriate CPE within 2 days after infection. Ribavirin served as a reference control and was similarly prepared. Negative controls consisted of the DMSO solution. Viral inhibition rate (VIR) (%) was calculated according to the formula [21], VIR = (A tV—A cV)/(A cd—A cV) × 100, where A tV is the optical density measured with a given concentration of the test compound in HRV infected cells; A cV is the optical density measured for the control untreated HRV infected cells; A cd is the optical density measured for the control untreated HRV uninfected cells.
(§2) The CC50 and IC50 values were determined using GraphPad Prism 5 software program (GraphPad Software, La Jolla, CA). […] The selectivity index (SI) was determined as the ratio of CC50 to IC50 [23]. All data represent the mean ± SD of duplicate or triplicate samples of three independent experiments. Statistical analyses were carried out using SAS 9.13 program (SAS Institute, Cary, NC). Data from two groups were analyzed by a Student’s t-test, and multiple groups were analyzed by a one-way analysis of variance and Bonferroni multiple comparison post-test.

HRV-2 [2] = experiment: Cytopathic effect inhibition assay (MTT), HRV-2 in MRC5 cells; assay type: cell-based, human rhinovirus; settings: read-out: IC50 (95% CL) HRV-2
Description: as §1, §2

HRV-4 [3] = experiment: Cytopathic effect inhibition assay (MTT), HRV-4 in MRC5 cells; assay type: cell-based, human rhinovirus; settings: read-out: IC50 (95% CL) HRV-4
Description: as §1, §2

HRV-4 particles = experiment: Infectivity of HRV-4 particles (preincubation of virus); assay type: cell-based, human rhinovirus; settings: MRC5 cells, 2 days; for inhibition at 100 µg/mL / inhibition at 20 µg/mL: Human rhinovirus sp.
Description: The effects of the test compounds on the infectivity of HRV-4 particles were elucidated as described previously by Choi et al.. […] HRV-4 was preincubated with 100 μg/mL PA, 20 μg/mL PGG, or 100 μg/mL ribavirin for 1 h at 4°C. Monolayers of MRC5 cells were infected with the pretreated or untreated HRV-4 for 1 h at 37°C. Unbound virus was removed by washing the wells with PBS twice, and then cells were incubated in fresh medium supplemented with or without test compounds at 37°C. After 2 days, MTT test and antiviral activity were carried out as stated previously.

HRV-4 [4] = experiment: Time-of-addition assay, HRV-4 in MRC5 cells; assay type: cell-based; settings: Human rhinovirus sp.
Description: The time-of-addition effects of all compounds on HRV-4 were examined according to the method of Choi et al.. In brief, monolayers of MRC5 cells were seeded onto a 96-well culture plate as stated previously. After washing with PBS, 100 μg/mL PA, 20 μg/mL PGG, and 100 μg/mL ribavirin were separately added onto the cells at either before (–1 h), during (0 h), or after (1, 2, 3, 4, 6, 8, 12, 16, 20, and 24 h) HRV-4 infection at 37°C. After 2 days, MTT test and antiviral activity were carried out as stated previously.

ICAM-1 = ICAM-1 mRNA expression, qRT-PCR in MRC5; assay type: cell-based, human; settings: MRC5, 2 days after HRV-2 or HRV-4 infection; 100 μg/mL PA, 20 μg/mL PGG
Description: (§3) To evaluate the level of gene expression, real-time qRT-PCR with SYBR Green dye was carried out. HRV-2 or HRV-4 infected and noninfected cultures of MRC5 monolayers grown in 25 cm^2 cell culture flasks (Corning, NY) were treated with 100 μg/mL PA or 20 μg/mL PGG. After incubation at 37°C and 5% CO2 for 2 days, total RNA was extracted from the culture cells using the RNeasy Plus Mini Kit (Qiagen, Hilden, Germany) according to the manufacturer’s instructions. Contaminated genomic DNA was removed using RQ1 RNase-free DNase (Promega, Madison, WI). […] The PCR conditions were as follows: 50°C for 2 min, 95°C for 10 min, and then 50 cycles of 95°C for 15 s and either 60°C [β2-microglobulin (B2M), interleukin (IL)-6, IL-8, LDLR, ICAM-1, HRV-2, and HRV-4] or 58°C (B2M and IL-1β) or 55°C [B2M, Toll-like receptor 3 (TLR3), tumor necrosis factor (TNF), and interferon beta (IFNβ)] for 30 s. mRNA expression level of target gene was normalized to mRNA expression level for the housekeeping gene B2M and analyzed by the 2^–ΔΔCT method using StepOne Software v2.1 and DataAssist Software (Applied Biosystems). […]
The expressions of ICAM-1 and LDLR were examined using real-time qRT-PCR and Western blot. […] The concentrations of ICAM-1 in the test samples were determined from OD values using standard curve of each assay.

TNF = TNF mRNA expression, qRT-PCR in MRC5; assay type: cell-based, human; settings: MRC5, 2 days; 100 μg/mL PA, 20 μg/mL PGG; vs untreated cells
Description: as §3, with “WI). Complementary DNA (cDNA) was synthesized using 1 μg total RNA through a reverse transcription reaction using the SuperScript First-Strand Synthesis Kit (Invitrogen, Carlsbad, CA).” for “WI).”

IFN-β = IFN-β mRNA expression, qRT-PCR in MRC5; assay type: cell-based, human; settings: MRC5, 2 days after HRV-2 or HRV-4 infection; 100 μg/mL PA, 20 μg/mL PGG
Description: as §3, with “WI). Complementary DNA (cDNA) was synthesized using 1 μg total RNA through a reverse transcription reaction using the SuperScript First-Strand Synthesis Kit (Invitrogen, Carlsbad, CA).” for “WI).”

[5] = Rhinovirus A, HRV2, MRC5, HRV-2 in MRC5 cells
[6] = Human rhinovirus sp., HRV4, MRC5, HRV-4 in MRC5 cells
[7] = HRV4, 48 h, 100 μg/mL PA, 20 μg/mL PGG, 100 μg/mL ribavirin, read-out: inhibition rate, continuous presence during infection
[8] = HRV4, virus preincubated 1 h at 4°C with 100 μg/mL PA, 20 μg/mL PGG or 100 μg/mL ribavirin, read-out: inhibition rate, preincubation of HRV-4 particles
[9] = HRV4, 0 h, 100 μg/mL PA, 20 μg/mL PGG, 100 μg/mL ribavirin, read-out: inhibition of HRV-4 infection, added at virus inoculation (0 h)
[10] = HRV4, read-out: inhibition of HRV-4 infection, added prior (–1 h) or post (1–24 h) infection, 100 μg/mL PA, 20 μg/mL PGG

IC50 (HRV-2 [1]; Rhinovirus A, HRV2, HeLa)	IC50 (HRV-2 [1])	Structure (SMILES)	IC50 (HRV-2 [2]; HRV-2 in MRC5 cells)	IC50 (HRV-2 [2]; [5])	IC50 (HRV-4 [3]; [6])	inhibition at 100 µg/mL (HRV-4 particles; [7])	inhibition rate, preincubation of HRV-4 particles (HRV-4 particles; virus preincubated 1 h at 4°C with 100 μg/mL PA, 20 μg/mL PGG or 100 μg/mL ribavirin)	IC50 (HRV-4 [3]; HRV-4 in MRC5 cells)	inhibition at 20 µg/mL (HRV-4 particles; [7])	inhibition at 20 µg/mL (HRV-4 particles; [8])	inhibition at 20 µg/mL (HRV-4 [4]; [9])	inhibition at 20 µg/mL (HRV-4 [4]; [10])	effect on HRV-induced ICAM-1 mRNA expression (ICAM-1)	effect on TNF mRNA expression (TNF)	effect on HRV-induced IFN-β mRNA expression (IFN-β)	inhibition at 100 µg/mL (HRV-4 particles; [8])	inhibition at 100 µg/mL (HRV-4 [4]; [9])	inhibition at 100 µg/mL (HRV-4 [4]; [10])
304 µM	304 µM	NC(=O)c1ncn([C@@H]2O[C@H](CO)[C@@H](O)[C@H]2O)n1 [Ribavirin, reference compound]	240 µM	240 µM	312 µM	58.2%	10.0%	–	–	–	–	–	–	–	–	–	–	–
608 µM	608 µM	COc1ccc(C(C)=O)c(O)c1 [PA, paeonol]	503 µM	503 µM	492 µM	57.2%	–	492 µM	–	–	–	–	reduced	did not remarkably reduce	meaningfully inhibited	10.6%	57.2%	≤ 40%

Structure (SMILES)	IC50 (HRV-2 [1]; Rhinovirus A, HRV2, HeLa)	IC50 (HRV-2 [1])	IC50 (HRV-2 [2]; HRV-2 in MRC5 cells)	IC50 (HRV-2 [2]; [5])	IC50 (HRV-4 [3]; [6])	inhibition at 100 µg/mL (HRV-4 particles; [7])	inhibition rate, preincubation of HRV-4 particles (HRV-4 particles; virus preincubated 1 h at 4°C with 100 μg/mL PA, 20 μg/mL PGG or 100 μg/mL ribavirin)	IC50 (HRV-4 [3]; HRV-4 in MRC5 cells)	inhibition at 20 µg/mL (HRV-4 particles; [7])	inhibition at 20 µg/mL (HRV-4 particles; [8])	inhibition at 20 µg/mL (HRV-4 [4]; [9])	inhibition at 20 µg/mL (HRV-4 [4]; [10])	effect on HRV-induced ICAM-1 mRNA expression (ICAM-1)	effect on TNF mRNA expression (TNF)	effect on HRV-induced IFN-β mRNA expression (IFN-β)	inhibition at 100 µg/mL (HRV-4 particles; [8])	inhibition at 100 µg/mL (HRV-4 [4]; [9])	inhibition at 100 µg/mL (HRV-4 [4]; [10])
O=C(OC[C@H]1O[C@@H](OC(=O)c2cc(O)c(O)c(O)c2)[C@H](OC(=O)c2cc(O)c(O)c(O)c2)[C@@H](OC(=O)c2cc(O)c(O)c(O)c2)[C@@H]1OC(=O)c1cc(O)c(O)c(O)c1)c1cc(O)c(O)c(O)c1 [PGG, 1,2,3,4,6-penta-O-galloyl-β-D-glucopyranose]	11.6 µM	11.6 µM	17.9 µM	17.9 µM	17.3 µM	–	–	17.3 µM	54.5%	11.2%	54.5%	≤ 40%	reduced	did not remarkably reduce	meaningfully inhibited	–	–	–

— publication PMC4393083, “Antiviral Activity and Possible Mechanism of Action of Constituents Identified in Paeonia lactiflora Root toward Human Rhinoviruses” (PLoS ONE, 2015)
